According to patent publication US20260034121A1, “COMPOSITIONS AND METHODS FOR ALPHA-SYNUCLEIN FIBRIL GROWTH INHIBITION” (Washington University, priority 2024, published 2026):

Biological target: T1, aSyn fibril growth (in vitro aSyn fibrils) (Homo sapiens, UniProt P37840)
T1 construct: made in house; host or cells: E. coli BL21-CodonPlus (DE3)-RIL, pRK172 plasmid
Assay: FlAsH fluorescence fibril growth assay with in vitro assembled aSyn fibril seeds
Assay type: biochemical
Text: Inhibition of fibril growth by small molecule compounds is likely to be mediated primarily by binding interactions with either monomer, fibrils, or both. However, secondary nucleation may occur and contribute to fibril growth under some conditions, and compounds may affect growth through interaction with oligomeric intermediates to inhibit conversion to fibrils. In one proposed mechanism, a compound binds to the end surface of fibrils and interferes with the binding of the new monomer required to extend the seed or fibril (FIG. 1). Since binding will deplete the free concentration of the inhibitor, measured IC50 values will be proportional to the concentration of the binding target (fibril seeds) and proportional to the concentration of monomer, with which the inhibitor competes for binding.
The fibril growth assay was performed similarly to previously published methods. […] Maximum inhibition is calculated as (Intensity100μM−Intensity0μM)/Intensity0μM×100% where Intensity100μM and Intensity0μM is the intensity at 100 μM of compound and intensity with no compound in the presence of fibrils and monomers.

CCOC(=O)C1CCN(Cc2cc(OC)c(O)c(OC)c2)CC1 [Compound 1, ethyl 1-[(4-hydroxy-3,5-dimethoxyphenyl)methyl]piperidine-4-carboxylate]
inhibition at 100 µM (at 100 μM compound versus no compound, read-out: Max Inhibition [%] [mean ± std]): 79%
IC50 (read-out: IC50 [95% Cl] [μM] [mean ± std], 1 μM fibril seeds, 3 μM C2-aSyn monomer, 3-hour incubation): 18 µM
